Experimental data: PubChem BioAssay AID248 (DTP/NCI, 2004)
Several values for one entry are separate records, joined by “and”; a condition that tells them apart may be missing. Equal values may be shown once. Inconclusive results and toxic doses are left out.

System: L1210 leukemia ip in BDF1 mice, survival T/C
Assay: NCI In Vivo Anticancer Drug Screen. Data for tumor model L1210 Leukemia (intraperitoneal) in B6D2F1 (BDF1) mice
Conditions: endpoint: mean survival time, higher = longer survival
Method in brief: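 Transplanted-tumor mice were given test agent; controls received vehicle only. Survival readings from the two groups were divided (treated over control).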

[1] = dose: 100.0 mg/kg/injection, schedule: Q01DX001 (ip), vehicle: saline
[2] = dose: 100.0 mg/kg/injection, schedule: Q04DX003 (ip), vehicle: saline
[3] = dose: 200.0 mg/kg/injection, schedule: Q01DX001 (ip), vehicle: saline
[4] = dose: 200.0 mg/kg/injection, schedule: Q04DX003 (ip), vehicle: saline
[5] = dose: 400.0 mg/kg/injection, schedule: Q01DX001 (ip), vehicle: saline
[6] = dose: 400.0 mg/kg/injection, schedule: Q04DX003 (ip), vehicle: saline
[7] = dose: 100.0 mg/kg/injection, schedule: Q04DX003 (ip), vehicle: Klucel (hydroxypropylcellulose) (HPC)
[8] = dose: 200.0 mg/kg/injection, schedule: Q04DX003 (ip), vehicle: Klucel (hydroxypropylcellulose) (HPC)
[9] = dose: 400.0 mg/kg/injection, schedule: Q04DX003 (ip), vehicle: Klucel (hydroxypropylcellulose) (HPC)
[10] = dose: 100.0 mg/kg/injection, schedule: Q01DX009 (ip), vehicle: Klucel (hydroxypropylcellulose) (HPC)
[11] = dose: 200.0 mg/kg/injection, schedule: Q01DX009 (ip), vehicle: Klucel (hydroxypropylcellulose) (HPC)
[12] = dose: 50.0 mg/kg/injection, schedule: Q01DX001 (ip), vehicle: carboxymethylcellulose (CMC)
[13] = dose: 100.0 mg/kg/injection, schedule: Q01DX001 (ip), vehicle: carboxymethylcellulose (CMC)
[14] = dose: 200.0 mg/kg/injection, schedule: Q01DX001 (ip), vehicle: carboxymethylcellulose (CMC)
[15] = dose: 400.0 mg/kg/injection, schedule: Q01DX001 (ip), vehicle: carboxymethylcellulose (CMC)
[16] = dose: 50.0 mg/kg/injection, schedule: Q01DX009 (ip), vehicle: saline with Tween-80
[17] = dose: 100.0 mg/kg/injection, schedule: Q01DX009 (ip), vehicle: saline with Tween-80
[18] = dose: 200.0 mg/kg/injection, schedule: Q01DX009 (ip), vehicle: saline with Tween-80
[19] = dose: 100.0 mg/kg/injection, schedule: Q04DX002 (ip), vehicle: saline with Tween-80
[20] = dose: 200.0 mg/kg/injection, schedule: Q04DX002 (ip), vehicle: saline with Tween-80
[21] = dose: 100.0 mg/kg/injection, schedule: Q04DX003 (ip), vehicle: saline with Tween-80
[22] = dose: 200.0 mg/kg/injection, schedule: Q04DX003 (ip), vehicle: saline with Tween-80
[23] = dose: 400.0 mg/kg/injection, schedule: Q04DX003 (ip), vehicle: saline with Tween-80
[24] = dose: 50.0 mg/kg/injection, schedule: Q04DX003 (ip), vehicle: saline

In the case of `NNc1ccc2c(O)cc(S(=O)(=O)O)cc2c1`, the T/C [1] is reported as 98 % of control, the T/C [2] is reported as 103 % of control and the T/C [3] is reported as 104 % of control. For the same molecule, the T/C [4] was 95 % of control, the T/C [5] was 107 % of control and the T/C [6] was 101 % of control.

In the case of `CC(C)NC(=O)CCSCCC(=O)NC(C)C`, the T/C (dose: 200.0 mg/kg/injection, schedule: Q04DX002 (ip), vehicle: other) is reported as 94 % of control and the T/C (dose: 400.0 mg/kg/injection, schedule: Q04DX002 (ip), vehicle: other) is reported as 94 % of control.

With `CC(Br)(CBr)CCC(C)(Br)CBr` (stereo unspecified) the T/C [7] was 94 % of control, the T/C [8] was 96 % of control and the T/C [9] was 91 % of control.

For `CC(=O)OC1CCCCCCC1`, the T/C [10] was 97 % of control, the T/C [7] was 95 % of control and the T/C [11] was 100 % of control. For the same molecule, the T/C [8] was 92 % of control, the T/C (dose: 400.0 mg/kg/injection, schedule: Q01DX009 (ip), vehicle: Klucel (hydroxypropylcellulose) (HPC)) was 94 % of control and the T/C [9] was 92 % of control.

For `C1=C(c2ccccc2)c2c(c3ccccc3c3ccccc23)C(c2ccccc2)=CC1`, the T/C [12] was 100 % of control, the T/C [13] was 100 % of control and the T/C [14] was 94 % of control. For the same molecule, the T/C [15] was 94 % of control.

With `CCC(C)C(CC(=O)O)C(=O)O` (stereo unspecified) the T/C [2] was 97 % of control, the T/C [4] was 94 % of control and the T/C [6] was 92 % of control.

In the case of `CNCc1cccc2ccccc12`, the T/C (dose: 75.0 mg/kg/injection, schedule: Q01DX001 (ip), vehicle: carboxymethylcellulose (CMC)) is reported as 101 % of control, the T/C (dose: 150.0 mg/kg/injection, schedule: Q01DX001 (ip), vehicle: carboxymethylcellulose (CMC)) is reported as 101 % of control and the T/C (dose: 300.0 mg/kg/injection, schedule: Q01DX001 (ip), vehicle: carboxymethylcellulose (CMC)) is reported as 107 % of control.

`O=c1oc(-c2ccc3c(c2)OCO3)nc2ccccc12` was tested, and the T/C [16] was 94 % of control, the T/C [17] was 94 % of control and the T/C [18] was 94 % of control.

For `CCOC(=O)N1CCC2C(CC3CC2C3(C)C)N1C(=O)OCC` (stereo unspecified), the T/C (dose: 50.0 mg/kg/injection, schedule: Q01DX009 (ip), vehicle: Klucel (hydroxypropylcellulose) (HPC)) was 103 % of control, the T/C [10] was 101 % of control and the T/C [7] was 97 % of control. The T/C [11] was 101 % of control, the T/C [8] was 101 % of control and the T/C [9] was 99 % of control.

For `CC(NC(=O)CNC(=O)CNC(=O)OCc1ccccc1)C(=O)O` (stereo unspecified), the T/C [7] was 97 % of control, the T/C [8] was 100 % of control and the T/C [9] was 91 % of control.

For `CCOC(=O)C1(C(=O)OCC)C=C(CC)C(=O)OC1`, the T/C [12] was 111 % of control, the T/C [13] was 100 % of control and the T/C [14] was 113 % of control. The T/C [15] was 105 % of control.

With `COc1cc(/C=C2\NC(=O)NC2=O)ccc1O` the T/C [18] was 86 % of control and the T/C (dose: 400.0 mg/kg/injection, schedule: Q01DX009 (ip), vehicle: saline with Tween-80) was 90 % of control.

With `CC(CBr)C(=O)O` (stereo unspecified) the T/C [19] was 97 % of control and the T/C [20] was 97 % of control.

With `COC(=O)c1[nH]c(=O)[nH]c(=O)c1F` the T/C (dose: 1.0 mg/kg/injection, schedule: Q01DX009 (ip), vehicle: saline with Tween-80) was 103 % of control, the T/C (dose: 1.0 mg/kg/injection, schedule: Q01DX Z (ip), vehicle: methylcellulose (MC)) was 115 % of control and the T/C (dose: 2.0 mg/kg/injection, schedule: Q01DX009 (ip), vehicle: saline with Tween-80) was 110 % of control. For the same molecule, the T/C (dose: 2.0 mg/kg/injection, schedule: Q01DX Z (ip), vehicle: carboxymethylcellulose (CMC)) was 118 % of control, the T/C (dose: 3.0 mg/kg/injection, schedule: Q01DX Z (ip), vehicle: carboxymethylcellulose (CMC)) was 124 % of control and the T/C (dose: 3.0 mg/kg/injection, schedule: Q01DX Z (ip), vehicle: methylcellulose (MC)) was 151 % of control. For the same molecule, the T/C (dose: 4.0 mg/kg/injection, schedule: Q01DX009 (ip), vehicle: saline with Tween-80) was 123 % of control, the T/C (dose: 5.0 mg/kg/injection, schedule: Q01DX Z (ip), vehicle: carboxymethylcellulose (CMC)) was 185 % of control and the T/C (dose: 6.0 mg/kg/injection, schedule: Q01DX Z (ip), vehicle: methylcellulose (MC)) was 172 % of control. For the same molecule, the T/C (dose: 8.0 mg/kg/injection, schedule: Q01DX009 (ip), vehicle: saline with Tween-80) was 167 % of control, the T/C (dose: 8.0 mg/kg/injection, schedule: Q01DX Z (ip), vehicle: carboxymethylcellulose (CMC)) was 150 % of control and the T/C (dose: 17.0 mg/kg/injection, schedule: Q01DX Z (ip), vehicle: carboxymethylcellulose (CMC)) was 97 % of control. For the same molecule, the T/C (dose: 24.0 mg/kg/injection, schedule: Q01DX Z (ip), vehicle: methylcellulose (MC)) was 114 % of control, the T/C (dose: 25.0 mg/kg/injection, schedule: Q01DX Z (ip), vehicle: carboxymethylcellulose (CMC)) was 120 % of control and the T/C (dose: 32.0 mg/kg/injection, schedule: Q01DX009 (ip), vehicle: saline with Tween-80) was 92 % of control. For the same molecule, the T/C (dose: 32.0 mg/kg/injection, schedule: Q04DX003 (ip), vehicle: saline with Tween-80) was 157 % of control, the T/C (dose: 38.0 mg/kg/injection, schedule: Q01DX Z (ip), vehicle: carboxymethylcellulose (CMC)) was 101 % of control and the T/C (dose: 48.0 mg/kg/injection, schedule: Q01DX Z (ip), vehicle: methylcellulose (MC)) was 114 % of control. For the same molecule, the T/C (dose: 64.0 mg/kg/injection, schedule: Q04DX003 (ip), vehicle: saline with Tween-80) was 215 % of control and the T/C (dose: 90.0 mg/kg/injection, schedule: Q01DX Z (ip), vehicle: methylcellulose (MC)) was 91 % of control.

With `COC1OCC(N=[N+]=[N-])C(OS(C)(=O)=O)C1OS(C)(=O)=O` (stereo unspecified) the T/C [21] was 94 % of control, the T/C [22] was 90 % of control and the T/C [23] was 92 % of control.

In the case of `CC1(C)OC2C(CNCCCl)OC(OCc3ccccc3)C2O1` (stereo unspecified), the T/C [24] is reported as 96 % of control and the T/C [2] is reported as 96 % of control.

`C[N+](C)(C)CC(O)COc1ccc(Cl)cc1Cl` (stereo unspecified) was tested, and the T/C (dose: 25.0 mg/kg/injection, schedule: Q04DX002 (ip), vehicle: Klucel (hydroxypropylcellulose) (HPC)) was 97 % of control, the T/C (dose: 50.0 mg/kg/injection, schedule: Q04DX002 (ip), vehicle: Klucel (hydroxypropylcellulose) (HPC)) was 101 % of control and the T/C (dose: 100.0 mg/kg/injection, schedule: Q04DX002 (ip), vehicle: Klucel (hydroxypropylcellulose) (HPC)) was 94 % of control and 89 % of control.

`CN1C2CCCC1CC(O)(c1ccccc1)C2` (stereo unspecified) was tested, and the T/C (dose: 12.5 mg/kg/injection, schedule: Q01DX001 (ip), vehicle: Klucel (hydroxypropylcellulose) (HPC)) was 96 % of control, the T/C (dose: 25.0 mg/kg/injection, schedule: Q01DX001 (ip), vehicle: Klucel (hydroxypropylcellulose) (HPC)) was 99 % of control and the T/C (dose: 50.0 mg/kg/injection, schedule: Q01DX001 (ip), vehicle: Klucel (hydroxypropylcellulose) (HPC)) was 102 % of control.

In the case of `COc1cccc(C23CCCCC2=NCC3)c1` (stereo unspecified), the T/C (dose: 25.0 mg/kg/injection, schedule: Q04DX003 (ip), vehicle: saline) is reported as 100 % of control, the T/C [24] is reported as 107 % of control and the T/C [2] is reported as 89 % of control.

For `CC(NP1(=O)OCC(C)(N)CO1)c1ccccc1` (stereo unspecified), the T/C (dose: 50.0 mg/kg/injection, schedule: Q01DX001 (ip), vehicle: saline) was 108 % of control, the T/C [1] was 102 % of control and the T/C [3] was 106 % of control. The T/C [5] was 93 % of control.

With `NC(=O)Cn1cnc2c(Cl)ncnc21` the T/C [21] was 104 % of control, the T/C [22] was 102 % of control and the T/C [23] was 120 % of control.

`O=C(Nc1ccccc1)c1cccnc1` was tested, and the T/C [13] was 94 % of control, the T/C [14] was 91 % of control and the T/C [15] was 96 % of control.

With `Cc1ccc(C(c2ccc(C)c(C)c2)C(O)C(O)C(O)CO)cc1C` (stereo unspecified) the T/C [1] was 94 % of control and 100 % of control, the T/C [3] was 102 % of control and 96 % of control and the T/C [5] was 97 % of control and 96 % of control.

With `C/C=C\c1ccc(OCCOC(C)=O)c(OC)c1` the T/C [19] was 97 % of control, the T/C [20] was 97 % of control and the T/C (dose: 400.0 mg/kg/injection, schedule: Q04DX002 (ip), vehicle: saline with Tween-80) was 93 % of control.

With `CCOc1ccn(CC(=O)c2ccc([N+](=O)[O-])o2)c(=O)n1` the T/C [16] was 96 % of control, the T/C [17] was 94 % of control and the T/C [21] was 98 % of control. The T/C [22] was 91 % of control.
